Experimental data reported in ChEMBL document CHEMBL5375989, “Pioneering 4,11-Dioxo-4,11-dihydro-1H-anthra[2,3-d]imidazol-3-ium Compounds as Promising Survivin Inhibitors by Targeting ILF3/NF110 for Cancer Therapy” (J Med Chem, 2023).
Active and inactive are the calls of the source. The calls are words filed in the database; no cut-off is given here.

Experiments:
A549 [1] = test: Inhibition of colony formation in human A549 cells assessed as suppression of colony formation at 1 nM replaced with fresh medium for every 72 hrs and measured for 15 days by crystal violet staining based assay; format: functional, cell-based; conditions: time 15.0 day
ASPC1 = test: Antiproliferative activity against human ASPC1 cells assessed as inhibition of cell growth measured after 48 hrs by MTT assay; format: functional, cell-based; conditions: Homo sapiens, ASPC1, 48 h
BXPC-3 = test: Antiproliferative activity against human BXPC-3 cells assessed as inhibition of cell growth measured after 48 hrs by MTT assay; format: functional, cell-based; conditions: Homo sapiens, BXPC-3, 48 h
PANC-1 = test: Antiproliferative activity against human PANC-1 cells assessed as inhibition of cell growth measured after 48 hrs by MTT assay; format: functional, cell-based; conditions: Homo sapiens, PANC-1, 48 h
MCF7 = test: Antiproliferative activity against human MCF7 cells assessed as inhibition of cell growth measured after 48 hrs by MTT assay; format: functional, cell-based; conditions: MCF7, 48 h
NCI-H460 = test: Antiproliferative activity against human NCI-H460 cells assessed as inhibition of cell growth measured after 48 hrs by MTT assay; format: functional, cell-based; conditions: Homo sapiens, NCI-H460, 48 h
HepG2 = test: Antiproliferative activity against human HepG2 cells assessed as inhibition of cell growth measured after 48 hrs by MTT assay; format: functional, cell-based; conditions: Homo sapiens, HepG2, 48 h
NCI-H1299 = test: Antiproliferative activity against human NCI-H1299 cells assessed as inhibition of cell growth measured after 48 hrs by MTT assay; format: functional, cell-based; conditions: Homo sapiens, NCI-H1299, 48 h
143B = test: Antiproliferative activity against human 143B cells assessed as inhibition of cell growth measured after 48 hrs by MTT assay; format: functional, cell-based; conditions: Homo sapiens, 143B, 48 h
HeLa = test: Antiproliferative activity against human HeLa cells assessed as inhibition of cell growth measured after 48 hrs by MTT assay; format: functional, cell-based; conditions: Homo sapiens, HeLa, 48 h
A549 [2] = test: Antitumor activity against human A549 cells xenografted in BALB/c nude mouse assessed as inhibition of tumor growth at 2 mg/kg, sc administered every 2 days for 14 days; format: functional, organism-based; conditions: time 14.0 day
A549 [3] = test: Antitumor activity against human A549 cells xenografted in BALB/c nude mouse assessed as increase in apoptosis at 2 mg/kg measured after 14 days by tunel staining based analysis; format: functional, organism-based; conditions: time 14.0 day
A549 [4] = test: Antitumor activity against human A549 cells xenografted in BALB/c nude mouse assessed as appearance of various size of tumor necrosis at 2 mg/kg measured after 14 days by H and E staining based analysis; format: functional, organism-based; conditions: time 14.0 day
A549 [5] = test: Antitumor activity against human A549 cells xenografted in BALB/c nude mouse assessed as decrease in tumor cell proliferation at 2 mg/kg measured after 14 days by Ki67 staining based analysis; format: functional, organism-based; conditions: time 14.0 day
A549 [6] = test: Antitumor activity against human A549 cells xenografted in BALB/c nude mouse assessed as decrease in tumor cell proliferation at 2 mg/kg measured after 14 days by PCNA staining based analysis; format: functional, organism-based; conditions: time 14.0 day
A549 [7] = test: Induction of apoptosis in human A549 cells assessed as viable cells at 0.04 uM measured after 48 hrs by annexin V and PI staining based flow cytometry analysis (reference value: 93.3%); format: functional; conditions: Homo sapiens, A549, 48 h, read-out: Activity
A549 [8] = test: Induction of apoptosis in human A549 cells assessed as viable cells at 0.1 uM measured after 48 hrs by annexin V and PI staining based flow cytometry analysis (reference value: 93.3%); format: functional; conditions: Homo sapiens, A549, 48 h, read-out: Activity
A549 [9] = test: Induction of apoptosis in human A549 cells assessed as viable cells at 0.25 uM measured after 48 hrs by annexin V and PI staining based flow cytometry analysis (reference value: 93.3%); format: functional; conditions: Homo sapiens, A549, 48 h, read-out: Activity
A549 [10] = test: Induction of apoptosis in human A549 cells assessed as early apoptotic cells at 0.04 uM measured after 48 hrs by annexin V and PI staining based flow cytometry analysis (reference value: 0.71%); format: functional
A549 [11] = test: Induction of apoptosis in human A549 cells assessed as early apoptotic cells at 0.1 uM measured after 48 hrs by annexin V and PI staining based flow cytometry analysis (reference value: 0.71%); format: functional
A549 [12] = test: Induction of apoptosis in human A549 cells assessed as early apoptotic cells at 0.25 uM measured after 48 hrs by annexin V and PI staining based flow cytometry analysis (reference value: 0.71%); format: functional
A549 [13] = test: Induction of apoptosis in human A549 cells assessed as late apoptotic cells at 0.04 uM measured after 48 hrs by annexin V and PI staining based flow cytometry analysis (reference value: 4.70%); format: functional
A549 [14] = test: Induction of apoptosis in human A549 cells assessed as late apoptotic cells at 0.1 uM measured after 48 hrs by annexin V and PI staining based flow cytometry analysis (reference value: 4.70%); format: functional
A549 [15] = test: Induction of apoptosis in human A549 cells assessed as late apoptotic cells at 0.25 uM measured after 48 hrs by annexin V and PI staining based flow cytometry analysis (reference value: 4.70%); format: functional
A549 [16] = test: Induction of apoptosis in human A549 cells assessed as necrotic cells at 0.04 uM measured after 48 hrs by annexin V and PI staining based flow cytometry analysis (reference value: 1.47%); format: functional
A549 [17] = test: Induction of apoptosis in human A549 cells assessed as necrotic cells at 0.1 uM measured after 48 hrs by annexin V and PI staining based flow cytometry analysis (reference value: 1.47%); format: functional
A549 [18] = test: Induction of apoptosis in human A549 cells assessed as necrotic cells at 0.25 uM measured after 48 hrs by annexin V and PI staining based flow cytometry analysis (reference value: 1.47%); format: functional
A549 [19] = test: cells; conditions: Homo sapiens, A549, 48 h
Description: (§2) Antiproliferative activity against human A549 cells assessed as inhibition of cell growth measured after 48 hrs by MTT assay

TE-1 = test: cells; conditions: Homo sapiens, TE-1, 48 h
Description: Antiproliferative activity against human TE-1 cells assessed as inhibition of cell growth measured after 48 hrs by MTT assay

5637 = test: cells; conditions: Homo sapiens, 5637, 48 h
Description: Antiproliferative activity against human 5637 cells assessed as inhibition of cell growth measured after 48 hrs by MTT assay

L929 = test: (§1) Antiproliferative activity against mouse L929 cells assessed as inhibition of cell growth measured after 48 hrs by MTT assay; format: toxicity, cell-based; conditions: l929
[20] = Selectivity index, ratio of IC50 for mouse L929 cells to IC50 for human A549 cells; format: toxicity; conditions: for selectivity ratio: L929 cells and A549 cells, read-out: Ratio IC50
A549 [21] = system: A549
Description: as §2

[22] = as §1; format: toxicity, cell-based; conditions: mouse, L929 cells
A549 [23] = test: Induction of autophagy in human A549 cells assessed as increase in LC3II amount by Western blot analysis; format: functional, cell-based; conditions: dose 0.04-0.1 µM
A549 [24] = test: Induction of oxidative stress in human A549 cells assessed as upregulation of ROS level by DCFH-DA staining based analysis; format: functional, cell-based; conditions: dose 0.04-0.1 µM
A549 [25] = test: Induction of DNA damage in human A549 cells assessed as gammaH2AX accumulation at 0.04 uM by Western blot analysis; format: functional, cell-based
A549 [26] = test: Induction of DNA damage in human A549 cells measured after 36 hrs by comet assay; format: functional, cell-based; conditions: dose 0.04-0.1 µM
A549 [27] = test: Induction of DNA damage in human A549 cells assessed as increase in DNA percentage in tail at low concentration measured after 36 hrs by comet assay; format: functional, cell-based
A549 [28] = test: Induction of apoptosis in human A549 cells assessed as increase in caspase-3 cleavage at low concentration measured after 48 hrs by Western blot analysis; format: functional, cell-based
A549 [29] = test: Induction of apoptosis in human A549 cells assessed as inhibition of Bcl-2 level measured after 48 hrs by Western blot analysis; format: functional, cell-based; conditions: dose 0.01-0.1 µM
A549 [30] = test: Induction of apoptosis in human A549 cells assessed as upregulation of bax level measured after 48 hrs by Western blot analysis; format: functional, cell-based; conditions: dose 0.01-0.1 µM
A549 [31] = test: Induction of autophagy in human A549 cells assessed as formation of GFP-LC3 punctate by confocal fluorescence microscopy analysis; format: functional, cell-based; conditions: dose 0.01-0.1 µM
A549 [32] = test: Inhibition of survivin mRNA expression in human A549 cells by Q-PCR analysis; format: functional, cell-based; conditions: dose 0.01-0.1 µM
A549 [33] = test: Inhibition of survivin protein expression in human A549 cells by Western blot analysis; format: functional, cell-based; conditions: dose 0.004 µM
A549 [34] = test: Induction of apoptosis in survivin silenced human A549 cells assessed as decrease in apoptotic rate at 0.04 uM measured after 48 hrs by AnnexinV-FITC/PI staining based flow cytometry; format: functional, cell-based
[35] = target: Baculoviral IAP repeat-containing protein 5 (Homo sapiens) (UniProt O15392); test: Inhibition of Survivin (unknown origin) expressed in HEK293T cells in presence of ILF3/NF110 by Dual luciferase reporter assay; format: cell-based; conditions: dose <= 2000.0 nM
A549 [36] = test: Antitumor activity against human A549 cells xenografted in BALB/c nude mouse assessed as appearance of tumor necrosis at 4 mg/kg measured after 14 days by H and E staining based analysis; format: functional, organism-based; conditions: time 14.0 day
A549 [37] = test: Antitumor activity against human A549 cells xenografted in BALB/c nude mouse assessed as increase in apoptosis at 2 to 4 mg/kg measured after 14 days by tunel staining based analysis; format: functional, organism-based; conditions: dose 2-4 mg/kg, time 14.0 day
A549 [38] = test: Antitumor activity against human A549 cells xenografted in BALB/c nude mouse assessed as decrease in tumor cell proliferation at 2 to 4 mg/kg measured after 14 days by Ki67 staining based analysis; format: functional, organism-based; conditions: dose 2-4 mg/kg, time 14.0 day
A549 [39] = test: Antitumor activity against human A549 cells xenografted in BALB/c nude mouse assessed as decrease in tumor cell proliferation at 2 to 4 mg/kg measured after 14 days by PCNA staining based analysis; format: functional, organism-based; conditions: dose 2-4 mg/kg, time 14.0 day

Chain of Baculoviral IAP repeat-containing protein 5 (Homo sapiens) (O15392 whole entry): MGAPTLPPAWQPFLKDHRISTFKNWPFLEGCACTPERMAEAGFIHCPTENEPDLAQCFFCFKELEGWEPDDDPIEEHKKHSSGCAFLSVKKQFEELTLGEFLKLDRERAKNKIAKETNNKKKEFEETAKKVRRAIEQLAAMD

COCC[n+]1c2c(n(Cc3cnccn3)c1C)C(=O)c1ccccc1C2=O.[Br-] [SEPANTRONIUM BROMIDE]
inhibition (A549 [1]): Active | IC50 (ASPC1): 510 nM | IC50 (BXPC-3): 90 nM | IC50 (PANC-1): 10 nM | IC50 (MCF7): 10 nM | IC50 (NCI-H460): 100 nM | IC50 (HepG2): 3720 nM | IC50 (NCI-H1299): 120 nM | IC50 (143B): 320 nM | IC50 (HeLa): 1800 nM | Activity (A549 [2]): inactive | Activity (A549 [3]): Active | Activity (A549 [4]): Active | Activity (A549 [5]): Active | Activity (A549 [6]): Active | viability at 0.04 µM (A549 [7]): 22.2% | viability at 0.1 µM (A549 [8]): 11.3% | viability at 0.25 µM (A549 [9]): 4.72% | Activity (A549 [10]): 1.65% | Activity (A549 [11]): 1.54% | Activity (A549 [12]): 0.57% | Activity (A549 [13]): 51.1% | Activity (A549 [14]): 76.4% | Activity (A549 [15]): 86.9% | Activity (A549 [16]): 24.2% | Activity (A549 [17]): 11.7% | Activity (A549 [18]): 7.79% | IC50 (A549 [19]): 10 nM | IC50 (TE-1): 8 nM | IC50 5637: 110 nM

CS(=O)(=O)[O-].Cn1c[n+](C)c2c1C(=O)c1ccccc1C2=O
IC50 (L929): 700 nM | Ratio IC50 [20]: 1.8 | IC50 (A549 [21]): 400 nM

Cc1n(C)c2c([n+]1C)C(=O)c1cc3ccccc3cc1C2=O
IC50 at 48 h [22]: 15100 nM | selectivity ratio [20]: 302 | IC50 (A549 [19]): 50 nM | IC50 (TE-1): 50 nM | IC50 5637: 420 nM

Cn1c[n+](C)c2c1C(=O)c1ccccc1C2=O.[I-]
IC50 (L929): 3520 nM | Ratio IC50 [20]: 117 | IC50 (A549 [21]): 30 nM

Cn1c[n+](C)c2c1C(=O)c1cc3ccccc3cc1C2=O
inhibition (A549 [1]): Active | Activity (A549 [23]): Dose-Dependent Effect | Activity (A549 [24]): Active | Activity (A549 [25]): Active | Activity (A549 [26]): Dose-Dependent Effect | Activity (A549 [27]): Active | Activity (A549 [28]): Active | Activity (A549 [29]): Dose-Dependent Effect | Activity (A549 [30]): Dose-Dependent Effect | Activity (A549 [31]): Dose-Dependent Effect | inhibition (A549 [32]): Active | inhibition (A549 [33]): Active | Activity (A549 [34]): Active | inhibition [35]: Dose-Dependent Effect | Activity (A549 [2]): Active | Activity (A549 [36]): Active | Activity (A549 [3]): Active | Activity (A549 [37]): Active | Activity (A549 [4]): Active | Activity (A549 [38]): Active | Activity (A549 [39]): Active

Cn1c[n+](C)c2c1C(=O)c1ccccc1C2=O.O=S(=O)([O-])C(F)(F)F
IC50 (L929): 2000 nM | Ratio IC50 [20]: 28.6 | IC50 (A549 [21]): 70 nM

O=C1c2ccccc2C(=O)c2c1n(Cc1ccccc1)c[n+]2Cc1ccccc1
IC50 at 48 h [22]: 39000 nM | selectivity ratio [20]: 47.6 | IC50 (A549 [19]): 820 nM
